This note sets out measurements from article PMC8571487 (Biochemistry and Biophysics Reports, 2021).

The target in this test is T1, NcFADS (Neurospora crassa, UniProt Q7SCU7).
T1 sequence (Q7SCU7 49-318): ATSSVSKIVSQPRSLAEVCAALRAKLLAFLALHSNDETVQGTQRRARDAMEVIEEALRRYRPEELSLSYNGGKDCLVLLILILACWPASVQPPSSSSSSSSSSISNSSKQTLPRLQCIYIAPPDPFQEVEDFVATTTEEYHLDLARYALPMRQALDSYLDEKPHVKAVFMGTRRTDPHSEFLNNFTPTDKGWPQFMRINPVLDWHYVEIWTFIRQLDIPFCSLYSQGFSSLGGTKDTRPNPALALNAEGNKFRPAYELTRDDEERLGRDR
Nature of the test: isothermal titration calorimetry. The test is classed as binding.

In turn, `Cc1cc2nc3c(=O)[nH]c(=O)nc-3n(C[C@H](O)[C@H](O)[C@H](O)COP(=O)(O)O)c2cc1C` [FMN] came in with a Kd of 20.8 µM.
`Nc1ncnc2c1ncn2[C@@H]1O[C@H](COP(=O)(O)OP(=O)(O)OP(=O)(O)O)[C@@H](O)[C@H]1O` [MgATP^2−] returned a Kd of 16.6 µM.
